Measured values as given in patent US11780893B2, “Kv1.3 blockers” (Zealand Pharma A/S, priority 2019, dated 2023).
Bridge positions count the residues as written; N and C are the ends. Square brackets hold non-standard residues; d marks the D form. Peptide text beside a SMILES is read from it. Nle = CCCC[C@H](N)C(=O)O

Molecular target: T1, human Kv1.3 voltage-gated K+ channel (Homo sapiens, UniProt P22001)
T1 construct: host or cells: CHO-DUKX
Assay: cell-based
Details: inhibition of thallium flux, CHO-DUKX cells with human Kv1.3; read-out: IC50

T1 sequence (P22001 whole entry): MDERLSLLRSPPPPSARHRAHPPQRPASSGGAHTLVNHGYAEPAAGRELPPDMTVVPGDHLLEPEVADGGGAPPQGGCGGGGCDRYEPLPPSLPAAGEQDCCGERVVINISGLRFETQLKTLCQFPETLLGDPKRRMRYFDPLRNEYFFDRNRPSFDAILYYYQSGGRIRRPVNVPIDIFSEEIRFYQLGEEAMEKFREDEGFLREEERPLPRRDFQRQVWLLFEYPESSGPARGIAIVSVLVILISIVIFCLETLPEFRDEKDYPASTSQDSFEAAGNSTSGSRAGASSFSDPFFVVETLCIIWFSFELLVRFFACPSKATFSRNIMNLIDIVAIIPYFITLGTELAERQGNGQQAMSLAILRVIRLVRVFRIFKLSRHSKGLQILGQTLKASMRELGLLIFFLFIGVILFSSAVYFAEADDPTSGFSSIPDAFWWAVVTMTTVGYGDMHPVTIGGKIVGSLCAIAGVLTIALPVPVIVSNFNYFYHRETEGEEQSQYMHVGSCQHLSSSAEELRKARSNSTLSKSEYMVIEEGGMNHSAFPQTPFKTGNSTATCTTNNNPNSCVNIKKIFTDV

Row | SMILES | IC50 [nM]
1 | CC[C@H](C)[C@@H]1NC(=O)[C@H](CO)NC(=O)CNC(=O)[C@H](C)NC(=O)[C@H](CCCCN)NC(=O)[C@H](CC(C)C)NC(=O)[C@@H]2CSSC[C@@H](C(=O)N[C@@H](Cc3ccc(O)cc3)C(=O)N3CCC[C@H]3C(=O)N[C@@H](CCCNC(=N)N)C(N)=O)NC(=O)[C@H](CCCCN)NC(=O)[C@@H]3CSSC[C@H](NC(=O)[C@H](CCC(=O)O)NC(=O)[C@H](C(C)C)NC(=O)[C@H](CO)NC(=O)[C@H](C)NC(=O)[C@H](CO)NC(=O)[C@@H](NC(=O)[C@H](CCCNC(=N)N)NC(=O)[C@H](CCSC)NC(=O)[C@H](CC(=O)O)NC(=O)[C@H](CCSC)NC(=O)[C@@H](N)CC(N)=O)CSSC[C@H](NC(=O)[C@H](CCCCN)NC(=O)CNC(=O)[C@H](Cc4ccccc4)NC1=O)C(=O)N[C@@H](CCSC)C(=O)N[C@@H](CC(N)=O)C(=O)N[C@@H](CCCCN)C(=O)N[C@@H](CCCCN)C(=O)N3)C(=O)N[C@@H](CCCCN)C(=O)N[C@@H](CCC(N)=O)C(=O)N[C@@H](CCCCN)C(=O)N2 [Compound 61] (H-NMDMRCSASVECKQKCLKAGSIFGKCMNKKCKCYPR-NH2; disulfide 6-26, 12-31, 16-33) | 0.4
2 | CCCC[C@H](NC(=O)[C@H](CC(=O)O)NC(=O)[C@H](CCCC)NC(=O)[C@@H](N)CO)C(=O)N[C@@H](CCCNC(=N)N)C(=O)N[C@H]1CSSC[C@@H]2NC(=O)[C@H](CCCCN)NC(=O)CNC(=O)[C@H](Cc3ccccc3)NC(=O)[C@H]([C@@H](C)CC)NC(=O)[C@H](CO)NC(=O)CNC(=O)[C@H]([C@@H](C)CC)NC(=O)[C@H](C)NC(=O)CNC(=O)[C@H](CC(C)C)NC(=O)[C@@H]3CSSC[C@@H](C(=O)N[C@@H](Cc4ccc(O)cc4)C(=O)N4CCC[C@H]4C(=O)N[C@@H](CCCNC(=N)N)C(N)=O)NC(=O)[C@H](CCCCN)NC(=O)[C@H](CSSC[C@H](NC(=O)[C@H](CCC(=O)O)NC(=O)[C@H](C(C)C)NC(=O)[C@H](CO)NC(=O)[C@H](C)NC(=O)[C@H](CO)NC1=O)C(=O)N[C@@H](CCCCN)C(=O)N[C@@H](CCC(N)=O)C(=O)N[C@@H](CCCCN)C(=O)N3)NC(=O)[C@H](CCCCN)NC(=O)[C@H](CCCCN)NC(=O)[C@H](CC(N)=O)NC(=O)[C@H](CCSC)NC2=O [Compound 77] (H-S[Nle]D[Nle]RCSASVECKQKCLGAIGSIFGKCMNKKCKCYPR-NH2; disulfide 6-27, 12-32, 16-34) | 0.13
3 | CCCC[C@H](NC(=O)[C@H](CC(=O)O)NC(=O)[C@H](CCCC)NC(=O)[C@@H](N)CO)C(=O)N[C@@H](CCCNC(=N)N)C(=O)N[C@H]1CSSC[C@@H]2NC(=O)[C@H](CCCCN)NC(=O)CNC(=O)[C@H](Cc3ccccc3)NC(=O)[C@H]([C@@H](C)CC)NC(=O)[C@H](CO)NC(=O)CNC(=O)[C@H]([C@@H](C)CC)NC(=O)[C@H](C)NC(=O)[C@H](C)NC(=O)[C@H](CC(C)C)NC(=O)[C@@H]3CSSC[C@@H](C(=O)N[C@@H](Cc4ccc(O)cc4)C(=O)N4CCC[C@H]4C(=O)N[C@@H](CCCNC(=N)N)C(N)=O)NC(=O)[C@H](CCCCN)NC(=O)[C@H](CSSC[C@H](NC(=O)[C@H](CCC(=O)O)NC(=O)[C@H](C(C)C)NC(=O)[C@H](CO)NC(=O)[C@H](C)NC(=O)[C@H](CO)NC1=O)C(=O)N[C@@H](C)C(=O)N[C@@H](CCC(N)=O)C(=O)N[C@@H](CC(C)C)C(=O)N3)NC(=O)[C@H](CCCCN)NC(=O)[C@H](CCCCN)NC(=O)[C@H](CC(N)=O)NC(=O)[C@H](CCSC)NC2=O [Compound 81] (H-S[Nle]D[Nle]RCSASVECAQLCLAAIGSIFGKCMNKKCKCYPR-NH2; disulfide 6-27, 12-32, 16-34) | 0.22
4 | CCCC[C@H](NC(=O)[C@H](CC(=O)O)NC(=O)[C@H](CCCC)NC(=O)[C@@H](N)CO)C(=O)N[C@@H](CCCNC(=N)N)C(=O)N[C@H]1CSSC[C@@H]2NC(=O)[C@H](CCCCN)NC(=O)CNC(=O)[C@H](Cc3ccccc3)NC(=O)[C@H]([C@@H](C)CC)NC(=O)[C@H](CO)NC(=O)CNC(=O)[C@H]([C@@H](C)CC)NC(=O)[C@H](C)NC(=O)[C@H](CCCCN)NC(=O)[C@H](CC(C)C)NC(=O)[C@@H]3CSSC[C@@H](C(=O)N[C@@H](Cc4ccc(O)cc4)C(=O)N4CCC[C@H]4C(=O)N[C@@H](CCCNC(=N)N)C(N)=O)NC(=O)[C@H](CCCCN)NC(=O)[C@H](CSSC[C@H](NC(=O)[C@H](CCC(=O)O)NC(=O)[C@H](C(C)C)NC(=O)[C@H](CC(C)C)NC(=O)[C@H](C)NC(=O)[C@H](CO)NC1=O)C(=O)N[C@@H](CCCCN)C(=O)N[C@@H](CCC(N)=O)C(=O)N[C@@H](CCCCN)C(=O)N3)NC(=O)[C@H](CCCCN)NC(=O)[C@H](CCCCN)NC(=O)[C@H](CC(N)=O)NC(=O)[C@H](CCSC)NC2=O [Compound 89] (H-S[Nle]D[Nle]RCSALVECKQKCLKAIGSIFGKCMNKKCKCYPR-NH2; disulfide 6-27, 12-32, 16-34) | 2.7
5 | CCCC[C@H](NC(=O)[C@H](CC(=O)O)NC(=O)[C@H](CCCC)NC(=O)[C@@H](N)CO)C(=O)N[C@@H](CCCNC(=N)N)C(=O)N[C@H]1CSSC[C@@H]2NC(=O)[C@H](CCCCN)NC(=O)CNC(=O)[C@H](Cc3ccccc3)NC(=O)[C@H]([C@@H](C)CC)NC(=O)[C@H](CO)NC(=O)CNC(=O)[C@H]([C@@H](C)CC)NC(=O)[C@H](C)NC(=O)[C@H](CCCCN)NC(=O)[C@H](CC(C)C)NC(=O)[C@@H]3CSSC[C@@H](C(=O)N[C@@H](Cc4ccc(O)cc4)C(=O)N4CCC[C@H]4C(=O)N[C@@H](CCCNC(=N)N)C(N)=O)NC(=O)[C@H](CCCCN)NC(=O)[C@H](CSSC[C@H](NC(=O)[C@H](CCC(=O)O)NC(=O)[C@H](C(C)C)NC(=O)[C@H](C(C)C)NC(=O)[C@H](C)NC(=O)[C@H](CO)NC1=O)C(=O)N[C@@H](CCCCN)C(=O)N[C@@H](CCC(N)=O)C(=O)N[C@@H](CCCCN)C(=O)N3)NC(=O)[C@H](CCCCN)NC(=O)[C@H](CCCCN)NC(=O)[C@H](CC(N)=O)NC(=O)[C@H](CCSC)NC2=O [Compound 90] (H-S[Nle]D[Nle]RCSAVVECKQKCLKAIGSIFGKCMNKKCKCYPR-NH2; disulfide 6-27, 12-32, 16-34) | 0.19
6 | CCCC[C@@H]1NC(=O)[C@@H]2CSSC[C@H](NC(C)=O)C(=O)N[C@@H](CO)C(=O)N[C@@H](C)C(=O)N[C@@H](CO)C(=O)N[C@@H](C(C)C)C(=O)N[C@@H](CCC(=O)O)C(=O)N[C@H]3CSSC[C@H](NC(=O)[C@H](CCCCN)NC(=O)[C@H](CCCCN)NC(=O)[C@H](CC(N)=O)NC1=O)C(=O)N[C@@H](CCCCN)C(=O)N[C@H](C(=O)N[C@@H](Cc1ccc(O)cc1)C(=O)N1CCC[C@H]1C(=O)N[C@@H](CO)C(N)=O)CSSC[C@H](NC(=O)[C@H](CCCCN)NC(=O)[C@H](CCC(N)=O)NC(=O)[C@H](CCCCN)NC3=O)C(=O)N[C@@H](CC(C)C)C(=O)N[C@@H](CCCCN)C(=O)N[C@@H](C)C(=O)N[C@@H]([C@@H](C)CC)C(=O)NCC(=O)N[C@@H](CO)C(=O)N[C@@H]([C@@H](C)CC)C(=O)N[C@@H](Cc1ccccc1)C(=O)NCC(=O)N[C@@H](CCCCN)C(=O)N2 [Compound 109] (Ac-CSASVECKQKCLKAIGSIFGKC[Nle]NKKCKCYPS-NH2; disulfide 1-22, 7-27, 11-29) | 0.96
7 | CCCC[C@@H]1NC(=O)[C@@H]2CSSC[C@H](NC(C)=O)C(=O)N[C@@H](CO)C(=O)N[C@@H](C)C(=O)N[C@@H](CO)C(=O)N[C@@H](C(C)C)C(=O)N[C@@H](CCC(=O)O)C(=O)N[C@H]3CSSC[C@H](NC(=O)[C@H](CCCCN)NC(=O)[C@H](CCCCN)NC(=O)[C@H](CC(N)=O)NC1=O)C(=O)N[C@@H](CCCCN)C(=O)N[C@H](C(=O)N[C@@H](Cc1ccc(O)cc1)C(=O)N[C@@H](CO)C(N)=O)CSSC[C@H](NC(=O)[C@H](CCCCN)NC(=O)[C@H](CCC(N)=O)NC(=O)[C@H](CCCCN)NC3=O)C(=O)N[C@@H](CC(C)C)C(=O)N[C@@H](CCCCN)C(=O)N[C@@H](C)C(=O)N[C@@H]([C@@H](C)CC)C(=O)NCC(=O)N[C@@H](CO)C(=O)N[C@@H]([C@@H](C)CC)C(=O)N[C@@H](Cc1ccccc1)C(=O)NCC(=O)N[C@@H](CCCCN)C(=O)N2 [Compound 110] (Ac-CSASVECKQKCLKAIGSIFGKC[Nle]NKKCKCYS-NH2; disulfide 1-22, 7-27, 11-29) | 2.3
8 | CCCC[C@@H]1NC(=O)[C@@H]2CSSC[C@H](NC(C)=O)C(=O)N[C@@H](CO)C(=O)N[C@@H](C)C(=O)N[C@@H](CO)C(=O)N[C@@H](C(C)C)C(=O)N[C@@H](CCC(=O)O)C(=O)N[C@H]3CSSC[C@H](NC(=O)[C@H](CCCCN)NC(=O)[C@H](CCCCN)NC(=O)[C@H](CC(N)=O)NC1=O)C(=O)N[C@@H](CCCCN)C(=O)N[C@H](C(=O)N[C@@H](Cc1ccc(O)cc1)C(=O)NCC(N)=O)CSSC[C@H](NC(=O)[C@H](CCCCN)NC(=O)[C@H](CCC(N)=O)NC(=O)[C@H](CCCCN)NC3=O)C(=O)N[C@@H](CC(C)C)C(=O)N[C@@H](CCCCN)C(=O)N[C@@H](C)C(=O)N[C@@H]([C@@H](C)CC)C(=O)NCC(=O)N[C@@H](CO)C(=O)N[C@@H]([C@@H](C)CC)C(=O)N[C@@H](Cc1ccccc1)C(=O)NCC(=O)N[C@@H](CCCCN)C(=O)N2 [Compound 111] (Ac-CSASVECKQKCLKAIGSIFGKC[Nle]NKKCKCYG-NH2; disulfide 1-22, 7-27, 11-29) | 2.1
9 | CCCC[C@@H]1NC(=O)[C@@H]2CSSC[C@H](NC(C)=O)C(=O)N[C@@H](CO)C(=O)N[C@@H](C)C(=O)N[C@@H](CO)C(=O)N[C@@H](C(C)C)C(=O)N[C@@H](CCC(=O)O)C(=O)N[C@H]3CSSC[C@H](NC(=O)[C@H](CCCCN)NC(=O)[C@H](CCCCN)NC(=O)[C@H](CC(N)=O)NC1=O)C(=O)N[C@@H](CCCCN)C(=O)N[C@H](C(=O)N[C@@H](Cc1ccc(O)cc1)C(N)=O)CSSC[C@H](NC(=O)[C@H](CCCCN)NC(=O)[C@H](CCC(N)=O)NC(=O)[C@H](CCCCN)NC3=O)C(=O)N[C@@H](CC(C)C)C(=O)N[C@@H](CCCCN)C(=O)N[C@@H](C)C(=O)N[C@@H]([C@@H](C)CC)C(=O)NCC(=O)N[C@@H](CO)C(=O)N[C@@H]([C@@H](C)CC)C(=O)N[C@@H](Cc1ccccc1)C(=O)NCC(=O)N[C@@H](CCCCN)C(=O)N2 [Compound 112] (Ac-CSASVECKQKCLKAIGSIFGKC[Nle]NKKCKCY-NH2; disulfide 1-22, 7-27, 11-29) | 1.7
